This note sets out measurements from US20250092065A1, “2-(INDAZOL-5-YL)-6-(PIPERIDIN-4-YL)-1,7-NAPHTHYRIDINE DERIVATIVES AND RELATED COMPOUNDS AS MODULATORS FOR SPLICING NUCLEIC ACIDS AND FOR THE TREATMENT OF PROLIFERATIVE DISEASES” (REMIX THERAPEUTICS INC., priority 2022, published 2025).

Where two headings read alike, the source gives them in different places.

The subject of series [1] is MYB mRNA. Kind of series: RT-qPCR splicing assay, MYB mRNA canonical (CJ) and alternative (AJ) junction. To be noted: Homo sapiens; for AC50: MYB alternative junction mRNA, read-out: MYB AJ (increase in AJ mRNA, AC50). The series is classed as cell-based, human. In outline:
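Both isoforms, CJ and AJ, read by qPCR from crude lysates of treated A673 or K562 cells; 24 h, 37 °C, maximum 10 uM. Normalization: housekeeper ΔCt, then DMSO ΔΔCt.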
(In general: Real-time PCR tracks product formation cycle by cycle.)

In series [2] the test system is MYB. Kind of series: HiBiT protein abundance assay, MYB (K562 HiBiT knock-in). The series is classed as cell-based, human. As to conditions: HiBiT knock-in K562 cells, 24 hours, top dose 10 μM. The procedure, abridged: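 Steps: seed HiBiT knock-in K562 cells; add compound in 10-point 3-fold series from 10 μM final; incubate 24 h, 37 °C; add lytic HiBiT reagent, shake 5 min, wait 10 min; read luminescence. Normalize to parental K562 and DMSO controls, fit 4PL, take IC50.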
(In general: The HiBiT peptide binds its large partner to form an active luciferase.)

Series [3] has as its system Target C. Kind of series: HiBiT protein abundance assay, Target C (K562 HiBiT knock-in). The class given is cell-based, human. To be noted: HiBiT knock-in K562 cells, 24 hours, top dose 10 μM. The procedure, abridged:
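K562 HiBiT knock-in cells (10000/well) were treated 24 h at 37° C with a 10-point 3-fold dilution series (top 10 μM final, ≤0.25% DMSO). HiBiT luminescence was read after lytic LgBiT detection. Percent response used unmodified K562 and DMSO-treated knock-in controls, and IC50 came from a four-parameter fit at 50% of untreated.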

The test system of series [4] is K562 cells. As to the kind of experiment: Cell Titer Glo 2.0 cell viability (toxicity) assay, K562. As to conditions: 500 cells/well, 72 hours. On the technique in general: Cellular ATP, detected with luciferase, serves as a proxy for viable cell number.
Setting [5] is: MYB canonical junction mRNA, RT-qPCR, read-out: MYB CJ (decrease in CJ mRNA levels, IC50).
The mark [6] stands for this setting: canonical junction qPCR panel, Table 4, read-out: MYB IC50 (decrease in CJ mRNA levels).

The AC50 is the concentration at which the activity in the assay is half-maximal. For orientation: IC50 means the midpoint of a concentration-inhibition curve. Regarding `Cc1nc2c(C)c(O)c(-c3ccc4nc(N5CC[C@@H](NC(C)C)C5)ccc4n3)cc2o1` (single isomer, unassigned) [Compound 313], the AC50 in series [1] (RT-qPCR) was below 100 nM. For the same molecule, the IC50 in series [1] (setting [5]), in series [1] (setting [6]), in series [2] and in series [3] was below 100 nM throughout. In addition, the “Effect of Exemplary Compounds on Cell Viability, K562” value (shortened to “Effect of Exemplary Compounds”) in series [4] is “A (A represents <100 nM)”.

Take `Cc1nc2c(C)c(O)c(-c3ccc4nc(N5CC[C@H](NC(C)C)C5)ccc4n3)cc2o1` (single isomer, unassigned) [Compound 314]: in series [1] (RT-qPCR), the AC50 is below 100 nM. For the same molecule, the IC50 in series [1] (setting [5]), in series [1] (setting [6]), in series [2] and in series [3] was below 100 nM each time. The “Effect of Exemplary Compounds” value in series [4] is reported as “A (A represents <100 nM)”.

Turning to `Cn1cc2cc(-c3ccc4nc(N5CC[C@@H](NC6CCC6)C5)ccc4n3)c(O)c(F)c2n1` (single isomer, unassigned) [Compound 316], the AC50 in series [1] (RT-qPCR) is below 100 nM. In addition, the IC50 in series [1] (setting [5]), in series [1] (setting [6]), in series [2] and in series [3] was below 100 nM throughout. Further, in series [4], the “Effect of Exemplary Compounds” value was “A (A represents <100 nM)”.

Turning to `Cn1cc2cc(-c3ccc4nc(N5CC[C@H](NC6CCC6)C5)ccc4n3)c(O)c(F)c2n1` (single isomer, unassigned) [Compound 317], the AC50 in series [1] (RT-qPCR) is below 100 nM. The IC50 in series [1] (setting [5]), in series [1] (setting [6]), in series [2] and in series [3] was below 100 nM in each case. Besides, the “Effect of Exemplary Compounds” value in series [4] is listed as “A (A represents <100 nM)”.

`Cc1c(O)c(-c2ccc3nc(N4CC[C@@H](NC(C)C)C4)ccc3n2)cc2cn(C)nc12` (single isomer, unassigned) [Compound 319]: in series [1] (RT-qPCR), the AC50 was below 100 nM. The IC50 in series [1] (setting [5]), in series [1] (setting [6]), in series [2] and in series [3] was below 100 nM in each case. The “Effect of Exemplary Compounds” value in series [4] is “A (A represents <100 nM)”.

For `Cc1c(O)c(-c2ccc3nc(N4CC[C@H](NCC5CC5)C4)ccc3n2)cc2cn(C)nc12` (single isomer, unassigned) [Compound 321], the AC50 in series [1] (RT-qPCR) was below 100 nM. For the same molecule, the IC50 in series [1] (setting [5]), in series [1] (setting [6]), in series [2] and in series [3] was below 100 nM each time. In addition, the “Effect of Exemplary Compounds” value in series [4] is reported as “B (B represents 100-1000 nM)”.

Turning to `Cc1c(O)c(-c2ccc3nc(N4CC[C@@H](NCC5CC5)C4)ccc3n2)cc2cn(C)nc12` (single isomer, unassigned) [Compound 322], the AC50 in series [1] (RT-qPCR) is below 100 nM. For the same molecule, the IC50 in series [1] (setting [5]), in series [1] (setting [6]), in series [2] and in series [3] was below 100 nM each time. Also, the “Effect of Exemplary Compounds” value in series [4] is on record as “B (B represents 100-1000 nM)”.

Regarding `Cc1nc2c(F)c(O)c(-c3ccc4nc(N5CC[C@@H](NCC6CC6)C5)ccc4n3)cc2o1` (single isomer, unassigned) [Compound 323], the AC50 in series [1] (RT-qPCR) was below 100 nM. For the same molecule, the IC50 in series [1] (setting [5]), in series [1] (setting [6]), in series [2] and in series [3] was below 100 nM in each case. For the same molecule, in series [4], the “Effect of Exemplary Compounds” value is listed as “A (A represents <100 nM)”.

For the molecule `Cc1nc2c(F)c(O)c(-c3ccc4nc(N5CC[C@H](NCC6CC6)C5)ccc4n3)cc2o1` (single isomer, unassigned) [Compound 324], the AC50 in series [1] (RT-qPCR) was below 100 nM. Besides, the IC50 in series [1] (setting [5]), in series [1] (setting [6]), in series [2] and in series [3] was below 100 nM each time. The “Effect of Exemplary Compounds” value in series [4] was “A (A represents <100 nM)”.

On to `Cc1nc2c(F)c(O)c(-c3ccc4nc(N5CC[C@@H](NC(C)C)C5)ccc4n3)cc2o1` (single isomer, unassigned) [Compound 329], for which the AC50 in series [1] (RT-qPCR) was below 100 nM. The IC50 in series [1] (setting [5]), in series [1] (setting [6]), in series [2] and in series [3] was below 100 nM in each case. Moreover, the “Effect of Exemplary Compounds” value in series [4] is on record as “A (A represents <100 nM)”.

On to `Cc1nc2c(F)c(O)c(-c3ccc4nc(N5CC[C@H](NC(C)C)C5)ccc4n3)cc2o1` (single isomer, unassigned) [Compound 330], for which the AC50 in series [1] (RT-qPCR) is below 100 nM. Further, the IC50 in series [1] (setting [5]), in series [1] (setting [6]), in series [2] and in series [3] was below 100 nM throughout. Further, in series [4], the “Effect of Exemplary Compounds” value is recorded as “A (A represents <100 nM)”.

Consider `Cn1cc2cc(-c3ccc4nc(N5CC[C@H](N[C@H]6C[C@H](F)C6)C5)ccc4n3)c(O)c(F)c2n1` (single isomer, unassigned) [Compound 347], for which the AC50 in series [1] (RT-qPCR) was below 100 nM. Moreover, the IC50 in series [1] (setting [5]), in series [1] (setting [6]), in series [2] and in series [3] was below 100 nM throughout. For the same molecule, the “Effect of Exemplary Compounds” value in series [4] is listed as “A (A represents <100 nM)”.

For the molecule `Cc1nc2cc(O)c(-c3ccc4nc(N5CC[C@@H](N[C@H]6C[C@H](F)C6)C5)ccc4n3)cc2o1` (single isomer, unassigned) [Compound 348], the AC50 in series [1] (RT-qPCR) was below 100 nM. Moreover, the IC50 in series [1] (setting [5]) was below 100 nM; in series [1] (setting [6]), below 100 nM; in series [2], below 100 nM; in series [3], 100 to 1000 nM. For the same molecule, the “Effect of Exemplary Compounds” value in series [4] is given as “C (C represents 1000-9999 nM)”.

Consider `Cn1cc2cc(-c3ccc4nc(N5CC[C@@H](N[C@H]6C[C@H](F)C6)C5)ccc4n3)c(O)c(F)c2n1` (single isomer, unassigned) [Compound 349], for which, in series [1] (RT-qPCR), the AC50 is below 100 nM. Moreover, the IC50 in series [1] (setting [5]), in series [1] (setting [6]), in series [2] and in series [3] was below 100 nM in each case. In addition, the “Effect of Exemplary Compounds” value in series [4] is “B (B represents 100-1000 nM)”.

As for `Cc1nc2c(C)c(O)c(-c3ccc4nc(N5CC[C@H](N[C@H]6C[C@H](F)C6)C5)ccc4n3)cc2o1` (single isomer, unassigned) [Compound 351], in series [1] (RT-qPCR), the AC50 was below 100 nM. Further, the IC50 in series [1] (setting [5]), in series [1] (setting [6]), in series [2] and in series [3] was below 100 nM in each case. Further, the “Effect of Exemplary Compounds” value in series [4] is reported as “B (B represents 100-1000 nM)”.

As for `Cc1nc2c(C)c(O)c(-c3ccc4nc(N5CC[C@@H](N[C@H]6C[C@H](F)C6)C5)ccc4n3)cc2o1` (single isomer, unassigned) [Compound 352], in series [1] (RT-qPCR), the AC50 was below 100 nM. The IC50 in series [1] (setting [5]), in series [1] (setting [6]), in series [2] and in series [3] was below 100 nM each time. The “Effect of Exemplary Compounds” value in series [4] is recorded as “B (B represents 100-1000 nM)”.

For `Cc1nc2c(F)c(O)c(-c3ccc4nc(N5CC[C@@H](NC6(C)CC6)C5)ccc4n3)cc2o1` (stereo in doubt) [Compound 326, 4-fluoro-2-methyl-6-{6-[(3 S)-3-[(1-methylcyclopropyl)amino]pyrrolidin-1-yl]-1,5-naphthyridin-2-yl}-1,3-benzoxazol-5-ol], in series [1] (RT-qPCR), the AC50 is below 100 nM. Besides, the IC50 in series [1] (setting [5]), in series [1] (setting [6]), in series [2] and in series [3] was below 100 nM in each case. Further, the “Effect of Exemplary Compounds” value in series [4] is given as “A (A represents <100 nM)”.

In the case of `Cc1nc2c(F)c(O)c(-c3ccc4nc(N5CCC(NC6(C)CC6)C5)ccc4n3)cc2o1` (stereo in doubt) [Compound 327, 4-fluoro-2-methyl-6-{6-[(3R)-3-[(1-methylcyclopropyl)amino]pyrrolidin-1-yl]-1,5-naphthyridin-2-yl}-1,3-benzoxazol-5-ol], in series [1] (RT-qPCR), the AC50 is below 100 nM. The IC50 in series [1] (setting [5]), in series [1] (setting [6]), in series [2] and in series [3] was below 100 nM each time. The “Effect of Exemplary Compounds” value in series [4] is listed as “B (B represents 100-1000 nM)”.

As to `Cc1nc2c(C)c(O)c(-c3ccc4nc(N5CC[C@H](NC(C)(C)C)C5)ccc4n3)cc2o1` [Compound 214], the AC50 in series [1] (RT-qPCR) lay in the range of 100 to 1000 nM. The IC50 in series [1] (setting [5]) was 100 to 1000 nM; in series [1] (setting [6]), 100 to 1000 nM; in series [2], below 100 nM; in series [3] it was below 100 nM. Besides, in series [4], the “Effect of Exemplary Compounds” value is on record as “A (A represents <100 nM)”.

On to `Cc1nc2c(C)c(O)c(-c3ccc4nc(N5CC[C@H](NC6CC6)C5)ccc4n3)cc2o1` [Compound 216], for which, in series [1] (RT-qPCR), the AC50 was below 100 nM. The IC50 in series [1] (setting [5]), in series [1] (setting [6]), in series [2] and in series [3] was below 100 nM in each case. In addition, the “Effect of Exemplary Compounds” value in series [4] is on record as “B (B represents 100-1000 nM)”.
